Data: patent US20130005721A1, “INDOLIZINE INHIBITORS OF 5-LIPOXYGENASE” (PANMIRA PHARMACEUTICALS, LLC, priority 2009, published 2013)

test system: human leukocytes (LTB4 production, calcium ionophore stimulated); assay: Human Leukocyte LTB4 Inhibition Assay; format: cell-based; conditions: Leukocyte, LTB4 by ELISA, read-out: LTB4 HLA IC50
Protocol: Human Leukocyte LTB4 Inhibition Assay
A non-limiting example of a human leukocyte inhibition assay is as follows; Blood was drawn from consenting human volunteers into heparanized tubes and 3% dextran 0.9% saline ⅓ rd volume added. After sedimentation of red blood cells a hypotonic lysis of remaining red blood cells was performed and leukocytes sedimented at 1200 rpm. The pellet was resuspended at 1.25×10^5 cells/ml and aliquoted into wells containing 1 μL 100% DMSO (vehicle) or 2.5 μL drug in 100% DMSO. Samples were incubated for 5 minutes at 37° C. and 2 μL calcium ionophore […] (from a 50 mM DMSO stock diluted just prior to the assay in Hanks balanced salt solution (Invitrogen)) to 1.25 mM) was added, solutions mixed and incubated for 30 minutes at 37° C. Samples were centrifuged at 1,200 rpm (−200×g) for 10 minutes at 4° C., plasma removed and a 1:4 dilution assayed for LTB4 concentration using ELISA (Assay Designs). Drug concentrations to achieve 50% inhibition (IC50's) of vehicle LTB4 were determined by nonlinear regression (Graphpad Prism) of % inhibition versus log drug concentration.

Going from CCOc1ccc(-c2c(C(N)=O)cc3cc(Cn4cc(C(O)(CC)C(F)(F)F)nn4)ccn23)cn1 (stereo not drawn) [Compound 1-58, 3-(6-Ethoxy-pyridin-3-yl)-7-[4-(1-hydroxy-1-trifluoromethyl-propyl)-[1,2,3]triazol-1-ylmethyl]-indolizine-2-carboxylic acid amide] to CCOC(=O)c1cc2cc(Cn3cc(C(O)(CC)C(F)(F)F)nn3)ccn2c1-c1ccc(OCC)nc1 (stereo not drawn) [Compound 1-56, 3-(6-Ethoxy-pyridin-3-yl)-7-[4-(1-hydroxy-1-trifluoromethyl-propyl)-[1,2,3]triazol-1-ylmethyl]-indolizine-2-carboxylic acid ethyl ester], the IC50 falls from over 1000 nM to under 300 nM. The second is the more potent here.

CCC(O)(c1cn(Cc2ccn3c(-c4ccc(F)cc4)c(CNCCC#N)cc3c2)nn1)C(F)(F)F (stereo not drawn) [Compound 1-42, 3-({3-(4-Fluoro-phenyl)-7-[4-(1-hydroxy-1-trifluoromethyl-propyl)-[1,2,3]triazol-1-ylmethyl]-indolizin-2-ylmethyl}-amino)-propionitrile] and CCC(O)(c1cn(Cc2ccn3c(-c4ccc(F)cc4)c(CO)cc3c2)nn1)C(F)(F)F (stereo not drawn) [Compound 1-30, 1,1,1-Trifluoro-2-{1-[3-(4-fluoro-phenyl)-2-hydroxymethyl-indolizin-7-ylmethyl]-1H-[1,2,3]triazol-4-yl}-butan-2-ol] cannot be ordered by IC50: under 300 nM for the first, under 300 nM for the second.

Going from CCOC(=O)c1cc2cc(Cn3cc(C(O)(CC)C(F)(F)F)nn3)ccn2c1-c1ccc(C)nc1 (stereo not drawn) [Compound 1-69, 7-[4-(1-Hydroxy-1-trifluoromethyl-propyl)-[1,2,3]triazol-1-ylmethyl]-3-(6-methyl-pyridin-3-yl)-indolizine-2-carboxylic acid ethyl ester] to CCC(O)(c1cn(Cc2ccn3c(-c4ccc(C)nc4)c(C(N)=O)cc3c2)nn1)C(F)(F)F (stereo not drawn) [Compound 1-71, 7-[4-(1-Hydroxy-1-trifluoromethyl-propyl)-[1,2,3]triazol-1-ylmethyl]-3-(6-methyl-pyridin-3-yl)-indolizine-2-carboxylic acid amide], the IC50 rises from under 300 nM to over 1000 nM.

CCOC(=O)c1cc2cc(Cn3cc(C(O)(CC)C(F)(F)F)nn3)ccn2c1-c1ccc(F)cc1 (stereo not drawn) [Compound 1-4, 3-(4-Fluoro-phenyl)-7-[4-(1-hydroxy-1-trifluoromethyl-propyl)-[1,2,3]triazol-1-ylmethyl]-indolizine-2-carboxylic acid ethyl ester] and CCOC(=O)c1cc2cc(Cn3cc(C(O)(CC)C(F)(F)F)nn3)ccn2c1-c1ccc(Cl)cc1 (stereo not drawn) [Compound 1-27, 3-(4-Chloro-phenyl)-7-[4-(1-hydroxy-1-trifluoromethyl-propyl)-[1,2,3]triazol-1-ylmethyl]-indolizine-2-carboxylic acid ethyl ester] cannot be ordered by IC50: under 300 nM for the first, under 300 nM for the second.

Compared with CCC(O)(c1cn(Cc2ccn3c(-c4ccc(F)cc4)c(-c4nn[nH]n4)cc3c2)nn1)C(F)(F)F (stereo not drawn) [Compound 1-23, 1,1,1-Trifluoro-2-{1-[3-(4-fluoro-phenyl)-2-(2H-tetrazol-5-yl)-indolizin-7-ylmethyl]-1H-[1,2,3]triazol-4-yl}-butan-2-ol], CCC(O)(c1cn(Cc2ccn3c(-c4ccc(F)cc4)c(C(=O)N(C)OC)cc3c2)nn1)C(F)(F)F (stereo not drawn) [Compound 1-51, 3-(4-Fluoro-phenyl)-7-[4-(1-hydroxy-1-trifluoromethyl-propyl)-[1,2,3]triazol-1-ylmethyl]-indolizine-2-carboxylic acid methoxy-methyl-amide] is lower in IC50: over 1000 nM for the first, under 300 nM for the second.

First: CCC(O)(c1cn(Cc2ccn3c(-c4cccc(S(C)(=O)=O)c4)c(C#N)cc3c2)nn1)C(F)(F)F (stereo not drawn) [Compound 1-49, 7-[4-(1-Hydroxy-1-trifluoromethyl-propyl)-[1,2,3]triazol-1-ylmethyl]-3-(3-methanesulfonyl-phenyl)-indolizine-2-carbonitrile]
Second: CCOC(=O)c1cc2cc(Cn3cc(C(O)(CC)C(F)(F)F)nn3)ccn2c1-c1cccc(S(C)(=O)=O)c1 (stereo not drawn) [Compound 1-47, 7-[4-(1-Hydroxy-1-trifluoromethyl-propyl)-[1,2,3]triazol-1-ylmethyl]-3-(3-methanesulfonyl-phenyl)-indolizine-2-carboxylic acid ethyl ester]
The IC50 of the first is higher: 300 to 1000 nM for the first, under 300 nM for the second. The second is the more potent here.

CCOC(=O)c1cc2cc(Cn3cc(C(O)(CC)C(F)(F)F)nn3)ccn2c1-c1cnn(C)c1 (stereo not drawn) [Compound 1-74, 7-[4-(1-Hydroxy-1-trifluoromethyl-propyl)-[1,2,3]triazol-1-ylmethyl]-3-(1-methyl-1H-pyrazol-4-yl)-indolizine-2-carboxylic acid ethyl ester] and CCOC(=O)c1cc2cc(Cn3cc(C(O)(CC)C(F)(F)F)nn3)ccn2c1-c1cccc(F)c1 (stereo not drawn) [Compound 1-46, 3-(3-Fluoro-phenyl)-7-[4-(1-hydroxy-1-trifluoromethyl-propyl)-[1,2,3]triazol-1-ylmethyl]-indolizine-2-carboxylic acid ethyl ester] cannot be ordered by IC50: under 300 nM for the first, under 300 nM for the second.

CCC(OC)(c1cn(Cc2ccn3c(-c4ccc(F)cc4)c(COC)cc3c2)nn1)C(F)(F)F (stereo not drawn) [Compound 1-45, 3-(4-Fluoro-phenyl)-2-methoxymethyl-7-[4-(1-methoxy-1-trifluoromethyl-propyl)-[1,2,3]triazol-1-ylmethyl]-indolizine] and CCC(O)(c1cn(Cc2ccn3c(-c4ccc(F)cc4)c(/C=C/C(=O)OC)cc3c2)nn1)C(F)(F)F (stereo not drawn) [Compound 1-39, (E)-3-{3-(4-Fluoro-phenyl)-7-[4-(1-hydroxy-1-trifluoromethyl-propyl)-[1,2,3]triazol-1-ylmethyl]-indolizin-2-yl}-acrylic acid methyl ester] cannot be ordered by IC50: under 300 nM for the first, under 300 nM for the second.

CCOC(=O)c1c(C(=O)C(F)(F)F)c2cc(Cn3cc(C(CC)(OC(=O)c4ccc([N+](=O)[O-])cc4)C(F)(F)F)nn3)ccn2c1-c1ccc(OC)nc1 (single isomer, unassigned) [Compound 1-84, 3-(6-Methoxy-pyridin-3-yl)-7-{4-[1-(4-nitro-benzoyloxy)-1-trifluoromethyl-propyl]-[1,2,3]triazol-1-ylmethyl}-1-(2,2,2-trifluoro-acetyl)-indolizine-2-carboxylic acid ethyl ester] and CCC(OC(=O)c1ccc([N+](=O)[O-])cc1)(c1cn(Cc2ccn3c(-c4ccc(OC)nc4)c(C(N)=O)cc3c2)nn1)C(F)(F)F (single isomer, unassigned) [Compound 1-83, 4-Nitro-benzoic acid 1-{1-[2-carbamoyl-3-(6-methoxy-pyridin-3-yl)-indolizin-7-ylmethyl]-1H-[1,2,3]triazol-4-yl}-1-trifluoromethyl-propyl ester] fall in the same range of IC50: 300 to 1000 nM for the first, 300 to 1000 nM for the second.

CCC(O)(c1cn(Cc2ccn3c(Cl)c(C#N)cc3c2)nn1)C(F)(F)F (single isomer, unassigned) [Compound 1-88, 3-Chloro-7-[4-(1-hydroxy-1-trifluoromethyl-propyl)-[1,2,3]triazol-1-ylmethyl]-indolizine-2-carbonitrile] and CCC(O)(c1cn(Cc2ccn3c(-c4ccc(OC)nc4)c(C#N)cc3c2)nn1)C(F)(F)F (single isomer, unassigned) [Compound 1-79, 7-[4-(1-Hydroxy-1-trifluoromethyl-propyl)-[1,2,3]triazol-1-ylmethyl]-3-(6-methoxy-pyridin-3-yl)-indolizine-2-carbonitrile] cannot be ordered by IC50: under 300 nM for the first, under 300 nM for the second.

CCOC(=O)c1nc2cc(CNc3nnc(C(O)(CC)C(F)(F)F)o3)ccn2c1-c1ccccc1 (stereo not drawn) [Compound 1-12, 7-{[5-(1-Hydroxy-1-trifluoromethyl-propyl)-[1,3,4]oxadiazol-2-ylamino]-methyl}-3-phenyl-imidazo[1,2-a]pyridine-2-carboxylic acid ethyl ester] and CCOC(=O)c1cc2cc(CNc3nnc(C(O)(CC)C(F)(F)F)o3)ccn2c1-c1ccc(F)cc1 (stereo not drawn) [Compound 1-11, 3-(4-Fluoro-phenyl)-7-{[5-(1-hydroxy-1-trifluoromethyl-propyl)-[1,3,4]oxadiazol-2-ylamino]-methyl}-indolizine-2-carboxylic acid ethyl ester] cannot be ordered by IC50: under 300 nM for the first, under 300 nM for the second.

First: CCOC(=O)c1cc2cc(Cn3ncc(C(O)(CC)C(F)(F)F)n3)ccn2c1-c1ccc(F)cc1 (stereo not drawn) [Compound 1-3, 3-(4-Fluoro-phenyl)-7-[4-(1-hydroxy-1-trifluoromethyl-propyl)-[1,2,3]triazol-2-ylmethyl]-indolizine-2-carboxylic acid ethyl ester]
Second: CCC(O)(c1cn(Cc2ccn3c(-c4ccc(F)cc4)c(C(N)=O)nc3c2)nn1)C(F)(F)F (stereo not drawn) [Compound 1-14, 3-(4-Fluoro-phenyl)-7-[4-(1-hydroxy-1-trifluoromethyl-propyl)-[1,2,3]triazol-1-ylmethyl]-imidazo[1,2-a]pyridine-2-carboxylic acid amide]
The IC50 of the first is lower: under 300 nM for the first, 300 to 1000 nM for the second. The first is the more potent here.

CCOC(=O)c1cc2cc(Sc3ncc(C(O)(CC)C(F)(F)F)s3)ccn2c1 (stereo not drawn) [Compound 1-1, 7-[5-(1-Hydroxy-1-trifluoromethyl-propyl)-thiazol-2-ylsulfanyl]-indolizine-2-carboxylic acid ethyl ester] and CCC(O)(c1cn(Cc2ccn3c(C(C)=O)c(C(=O)OC)cc3c2)nn1)C(F)(F)F (stereo not drawn) [Compound 1-66, 3-Acetyl-7-[4-(1-hydroxy-1-trifluoromethyl-propyl)-[1,2,3]triazol-1-ylmethyl]-indolizine-2-carboxylic acid methyl ester] cannot be ordered by IC50: under 300 nM for the first, under 300 nM for the second.

In the case of CCC(O)(c1cn(Cc2ccn3c(-c4cnc5ccccc5c4)c(C#N)cc3c2)nn1)C(F)(F)F (stereo not drawn) [Compound 1-53, 7-[4-(1-Hydroxy-1-trifluoromethyl-propyl)-[1,2,3]triazol-1-ylmethyl]-3-quinolin-3-yl-indolizine-2-carbonitrile], the IC50 is reported as under 300 nM.
